Reference: publication PMC8522962 (Reproductive Toxicology (Elmsford, N.y.), 2021)
Entries after “also recorded” stand apart in the source; their conditions may differ. Blank lines part the entries; values can stand above or below the molecule they belong to.

Columns and labels:
mouse gastruloids = assay: Mouse gastruloid assay, both lines or line not specified; format: cell-based; conditions: for mouse Gastruloid LOAEL: lowest observable adverse effect level; for overall outcome in the mouse gastruloid model: summary statements
[1] = EMA ICH S5 (R3) guidelines; cited from earlier work
hiPSC-derived EBs = assay: Human 3D in vitro model, hiPSC-derived embryoid bodies; format: cell-based; conditions: threshold concentration where 20 % of teratogenicity was detected by differential expression
[2] = system: T/Bra::GFP mouse gastruloids; assay: Mouse gastruloid assay, T/Bra::GFP reporter line; format: cell-based; conditions: for adverse effects on reporter gene expression (words): mouse system, up to the highest concentration levels
[3] = system: differentiation of mouse embryonic stem cells (ES-D3) into beating cardiomyocytes; assay: Mouse embryonic stem cell test; format: cell-based; conditions: for mEST ID50: half maximal inhibitory concentration of cardiomyocyte differentiation
[4] = system: RUES2-GLR human gastruloids; assay: Human gastruloid assay, RUES2-GLR line; conditions: for Human Gastruloid LOAEL: lowest observable adverse effect level; for overall outcome in the human gastruloid model: summary statements; for adverse effects on reporter gene expression (words): up to the highest concentration levels
rats = conditions: read-out: rat in vivo LOAEL Cmax; maximum plasma concentration at LOAEL; cited from earlier work
rabbits = conditions: cited from earlier work
[5] = system: E14Tg2A mouse gastruloids; assay: Mouse gastruloid assay, E14Tg2A line; format: cell-based
plasma protein = conditions: cited from earlier work; for free fractions of unbound compound: human therapeutic concentrations

SMILES: COc1ccccc1Oc1c(NS(=O)(=O)c2ccc(C(C)(C)C)cc2)nc(-c2ncccn2)nc1OCCO [Bosentan]
size and morphogenesis vs controls (mouse gastruloids; 4–18 μM, mouse gastruloids): slightly larger than controls, but did not appear to be defective in morphogenesis | Teratogenicity classification [1]: Positive | hiPSC- derived EBs TC20 (hiPSC-derived EBs): 13 µM | morphology vs controls ([2]; 4 μM and 8 μM): larger and more elongated than controls | GFP expression ([2]; cultured in the presence of bosentan (4-18 μM)): robust GFP expression that was localised to the pole of the elongations | mEST prediction [3]: false negative | mEST ID50 [3]: 68.2 µM | germ layer representation and axial elongation ([4]; 4 μM): maintain representation of all three germ layers and axial elongation morphogenesis | size vs DMSO ([4]; 4 μM): marginally smaller than DMSO-treated gastruloids | SOX17 expression ([4]; 18 μM): lose expression of SOX17 | human gastruloids showing low levels of SOX17 expression, on average ([4]; 18 μM, 72 h, vehicle controls 88 %): 33% | Human Gastruloid LOAEL ([4]; 72 h): 18 µM | overall outcome in the human gastruloid model [4]: potentially teratogenic | Cmax (rats): 30 µM | effects in rabbits in vivo (rabbits): no effects

SMILES: CC(C)Cc1ccc(C(C)C(=O)O)cc1 (centres unmarked) [Ibuprofen]
growth and morphology vs vehicle-only controls (mouse gastruloids; 63−250 μM, 0.12 % DMSO control): no consistent effect on growth or morphology | mouse Gastruloid LOAEL (mouse gastruloids; 120 h): 63 µM | mouse Gastruloid LOAEL (mouse gastruloids; 120 h, listed as ibuprofen): 63 µM | overall outcome in the mouse gastruloid model (mouse gastruloids): adverse effects on gene expression | hiPSC- derived EBs TC20 (hiPSC-derived EBs): 855 µM | GFP expression ([2]; all ibuprofen treatments tested (63-250 μM)): marked increase in GFP expression | mEST prediction [3]: negative | SOX2 expression vs vehicle-only controls ([4]; 63 μM): marginally elevated | size and circularity ([4]; 63 μM and 250 μM): reduced size and increased circularity | Human Gastruloid LOAEL ([4]; 72 h): 63 µM | Cmax (rats): 1600 µM | effects in rabbits in vivo (rabbits): no effects

effect on size ([4]; 63 μM and 1 mM): minimal effects of increased size
SMILES: CC1(C)S[C@@H]2[C@H](NC(=O)Cc3ccccc3)C(=O)N2[C@H]1C(=O)O [Penicillin G]
morphological changes vs control ([5]; 63 μM, 1 mM and 2 mM, water control): small morphological changes resulting in slightly larger, more elongated or less circular gastruloids | adverse effects on reporter gene expression (words) ([2]; listed as Penicillin): No observable adverse effects on reporter gene expression | adverse effects on reporter gene expression (words) ([2]; listed as penicillin G): did not cause any adverse effects on reporter gene expression | adverse effects on reporter gene expression (words) ([4]; human system, listed as Penicillin): No observable adverse effects on reporter gene expression | adverse effects on reporter gene expression (words) ([4]; human system, listed as penicillin G): did not cause any adverse effects on reporter gene expression

SMILES: O=C1NC(=O)C(c2ccccc2)(c2ccccc2)N1 [Phenytoin]
overall outcome in the mouse gastruloid model (mouse gastruloids): adverse effects on gene expression | size and morphology vs vehicle-only controls ([5]; 1−20 μM, 0.1 % DMSO control): not significantly different compared to the vehicle-only controls in terms of size and morphology | Teratogenicity classification [1]: Positive | plasma protein binding (plasma protein): 90% | free fractions of unbound compound (plasma protein): 3 to 9 µM | hiPSC- derived EBs TC20 (hiPSC-derived EBs): < 8 µM | size and circularity ([2]; 20 μM): significantly smaller and more circular | T/Bra::GFP expression ([2]; > 5 μM): negatively correlated with increasing concentrations of phenytoin | mEST ID50 [3]: 0.39 µM | area ([4]; 20 μM, One-Way ANOVA α = 0.05): significantly reduced area | proportions and patterns of gene expression ([4]; 1−20 μM): maintained proportions and patterns of gene expression that were comparable to controls | overall outcome in the human gastruloid model [4]: falls below the limit of detectable effect | Cmax (rats): 106 µM

SMILES: CC1=C(/C=C/C(C)=C/C=C/C(C)=C/C(=O)O)C(C)(C)CCC1 [Retinoic Acid, All-trans retinoic acid]
effect on axial extension (mouse gastruloids; 0.4 nM, 120 h, both lines): significant inhibition of axial extension | effect on size and shape (mouse gastruloids; 33 nM, 100 nM, 120 h, both lines): drastically reduced size, and gastruloids assumed a spherical shape without any axial elongation | dosages likely to be cytotoxic or cytostatic in the mouse system (mouse gastruloids; 120 h): > 0.4 nM | mouse Gastruloid LOAEL (mouse gastruloids; 120 h): 0.0004 µM | overall outcome in the mouse gastruloid model (mouse gastruloids): similarly teratogenic; also recorded: adverse morphological effects | Teratogenicity classification [1]: Positive | T/Bra::GFP expression ([2]; all ATRA treatments (0.4-100 nM), 120 h): apparent loss of T/Bra::GFP expression | mEST ID50 [3]: 0.0037 µM | mEST ID50 ([3]; listed as ATRA): 0.003 µM | germ layer representation and axial elongation ([4]; 0.4 nM, 72 h): maintain an equivalent representation of the three germ layers and underwent partial axial elongation | size and circularity vs controls ([4]; 0.4 nM, 72 h): significantly smaller and more circular than controls | axial extension and SOX2 expression ([4]; 33 nM, 72 h): completely inhibited axial extension and promoted the over-expression of SOX2 | BRA expression ([4]; 33 nM, 72 h, three replicates): no detectable BRA expression | human gastruloids expressing SOX17 at low levels, on average ([4]; 33 nM, 72 h, DMSO controls 88 %): 42% | Human Gastruloid LOAEL ([4]; 72 h): 0.0004 µM | overall outcome in the human gastruloid model [4]: similarly teratogenic | Cmax (rats): 1 µM

SMILES: O=C1CCC(N2C(=O)c3ccccc3C2=O)C(=O)N1 (centres unmarked) [Thalidomide]
size and morphology (mouse gastruloids; 0.4−100 μM, both lines): not significantly altered in either size or morphology | overall outcome in the mouse gastruloid model (mouse gastruloids): adverse effects on gene expression | Teratogenicity classification [1]: Positive | hiPSC- derived EBs TC20 (hiPSC-derived EBs): < 0.1 µM | GFP expression ([2]; increasing concentrations (100 μM)): reduced GFP expression | mEST prediction [3]: false negative | mEST inhibition of cardiomyocytes ([3]; concentrations up to 2 mM): did not show any inhibition of cardiomyocytes | SOX2 expression ([4]; 0.4 μM and 100 μM): clearly increased SOX2 expression | gastruloid size ([4]; 0.4 μM and 100 μM): significant decreases in gastruloid size | Human Gastruloid LOAEL ([4]; 72 h): 0.4 µM | overall outcome in the human gastruloid model [4]: potentially teratogenic | Cmax (rats): 19 µM

SMILES: CCCC(CCC)C(=O)O [Valproic Acid]
tolerability (mouse gastruloids; 4 μM, mouse gastruloids): fairly well tolerated | toxicity judged from decrease in gastruloid size (mouse gastruloids; 1 mM, mouse system): seem to induce toxicity | effect on shape and size (mouse gastruloids; concentrations higher than 333 μM, mouse gastruloids): clearly spherical mouse gastruloids | mouse Gastruloid LOAEL (mouse gastruloids; 120 h): 333 µM | overall outcome in the mouse gastruloid model (mouse gastruloids): similarly teratogenic; also recorded: adverse morphological effects | Teratogenicity classification [1]: Positive | plasma protein binding (plasma protein): ≥ 90% | free fractions of unbound compound (plasma protein): 0.3−0.5 mM | hiPSC- derived EBs TC20 (hiPSC-derived EBs): 85 µM | GFP expression ([2]; 4 μM): maintained localised GFP expression | size, elongation and GFP expression ([2]; concentrations higher than 4 μM): smaller gastruloids, impaired elongation and a loss of GFP expression | mEST ID50 [3]: 589 µM | effect on size ([4]; 4 μM, human gastruloids): decrease in size | tolerability ([4]; 4 μM, human gastruloids): fairly well tolerated | SOX2 and BRA reporter expression vs 0.2 % DMSO controls ([4]; 333 μM): very low SOX2 expression and elevated BRA expression | axial elongation morphogenesis ([4]; 333 μM): failed to undergo axial elongation morphogenesis | toxicity judged from decrease in gastruloid size ([4]; 1 mM, human system): seem to induce toxicity | Human Gastruloid LOAEL ([4]; 72 h): 333 µM | overall outcome in the human gastruloid model [4]: similarly teratogenic | Cmax (rats): 1600 µM
